Experimental data from patent publication US20230002446A1, “ANTI-INFLAMMATORY AGENTS” (The University of Sydney, priority 2019, published 2023).
Where a SMILES comes first, the peptide text is derived from it. [ ]: non-standard residue; d: D form. AEEA = NCCOCCOCC(=O)O

Tests used:
C57BL/6 mice = assay: imiquimod-induced psoriasis model; type: in vivo
Procedure: FIG. 4—Peptide administration reduces local disease severity in a mouse model of psoriasis. (A) Experimental outline (B) Clinical scores of mice receiving PBS or peptide RP23 (SEQ ID NO:12) injection, compared to daily (0-4 days) topical application of glucocorticoid on the back and ear. (C) Measures of disease local to the peptide RP23 injection site. Redness was measured using an unbiased erythema meter and skin thickness by manual callipers. (D) Spleen weight at day 5 as a measure of systemic immune suppression. […] Data are presented as mean±S.E.M. Statistical significance was determined by ANOVA with Dunnett's multiple comparison test, *p<0.05, **p<0.01, ***p<0.001, ****p<0.0001.
FIG. 10. Therapeutic synergy of RP23 and topical steroid in the murine imiquimod-induced psoriasis model. Aldara cream (5% imiquimod, 57.5 mgs) was applied daily (days 0-4) to the backs of C57BL/6 female mice to induce psoriasis. Clinical scores (PASI), modified psoriasis area and severity index) of mice receiving (A) PBS or RP23 injection at day −1, with or without topical application of glucocorticoid (0.05% betamethasone dipropionate, “BD” 30 mgs) on the back at day 0 (B) PBS or RP23 injection at day 1 and topical application of glucocorticoid at day 1, in comparison to PBS injection only at day −1. Data are the means+/−SEM (n=5). Statistical significance was determined by ANOVA with Dunnett's multiple comparison test to PBS only control, *p<0.05, **p<0.01, ***p<0.001, ****p<0.0001.
The backs of 8-week old female C57BL/6 mice (Australian BioResources) were coarse shaved. A minimum of 24 hours later, 10 nmol RP23 was delivered via sub-cutaneous injection at the lower back in 200 μl phosphate buffered saline (PBS). Groups of mice acting as positive controls for disease development received injection of PBS only. One or seven days later, psoriasis-like inflammation was induced via topical application of 5% imiquimod cream (Aldara, Inova Pharmaceuticals) to the shaved back (57.5 mgs) and one ear (5 mg, divided between dorsal and ventral sides). The contralateral ear served as a negative control for imiquimod-induced inflammation. Imiquimod application was repeated daily for four consecutive days. C57BL/6 mice experience rapid weight loss (up to 20%) upon application of imiquimod cream. Supportive care was provided in the form of dietary supplementation commenced 2 days prior to imiquimod application, and intra-peritoneal injection of 300 μl sterile PBS on days two and three of imiquimod application. Disease progression was monitored for five days, by recording weight loss and grading disease of the back skin using a modified Psoriasis Area and Severity Index (PASI) clinical scoring system, that assessed only disease severity. Additionally, erythema meter (DSM II ColorMeter, Cortex Technology, Denmark) readings were taken at four quadrants on the back skin and skin backfold thickness measurements were recorded using manual callipers. Disease progression of the ear skin was determined by recording ear thickness, measured by manual callipers. As a positive control for immune suppressive therapy, groups of mice received daily topical application of betamethasone dipropionate 0.05% (MSD) cream (30 mgs on the back, 10 mgs on the ear).
Aldara cream (5% imiquimod, 57.5 mgs) was applied daily (days 0-4) to the backs of C57BL/6 female mice to induce psoriasis. Clinical scores (PASI, modified psoriasis area and severity index) of mice receiving prophylactic PBS or RP23 (at day −1), with or without topical application of glucocorticoid (0.05% betamethasone dipropionate, 30 mgs) to the back at day 0, were determined (FIG. 10A).
RP23 and BD therapy were also tested when given synergistically at a therapeutic timepoint (at day 1). Psoriasis was induced as above, but clinical scores were determined daily for 10 days after ceasing imiquimod application at day 5, to record the rate and degree of psoriasis disease resolution (FIG. 10B).

dermal dendritic cells = assay: intradermal injection into healthy human skin explants, myeloid cell activation; type: cell-based; settings: intra-dermal injection, overnight culture
Procedure: FIG. 7—Peptide administration reduces spontaneous myeloid cell activation in human skin. (A) Peptide RP23 (SEQ ID NO: 12) was injected intradermally into healthy human skin grafts. Myeloid cell activation was assessed after overnight culture. (B) The effect of peptide RP23 on the spontaneous upregulation of activation markers on myeloid cell subsets in the skin. Data are representative of 6 donors.
Using an in vitro culture system, it was determined whether RP23 could suppress the activity of specific pro-inflammatory immune cells. […] The culture of murine bone marrow derived macrophages with RP23 led to reduced IL-6, MCP-1 and TNF release after LPS-stimulation (FIG. 5b). Similarly, primary human blood derived macrophages had reduced IL-6 and IL-12/23 release after stimulation with either LPS or imiquimod (FIG. 5c).

UV13-1 tumour cells = assay: murine skin tumour model, peptide trialled as vaccine antigen; type: in vivo, mice; settings: 5 nmol sub-cutaneous 21 and 7 days prior to transfer of UV13-1 tumour cells
Procedure: FIG. 1—Peptide administration leads to accelerated skin tumour growth. Mice received sub-cutaneous injections of mixtures containing 5 nmol peptide RP23 (SEQ ID NO:12) (solid line), PBS or liposome controls (dotted line) 21 and 7 days prior to transfer of UV13-1 tumour cells. […] Difference in survival was analysed statistically using a log-rank test.
The inventors initially trialled RP23 (SEQ ID NO: 12) as a vaccine antigen in a murine skin tumour model. […] They then assessed whether RP23 could reduce inflammation in a murine model of contact dermatitis, using a contact hypersensitivity assay (FIG. 2a). […] Using RP23, the inventors carried out a dose-response assay to titrate the immune suppression. Using three doses in the low nanomole range (2, 5 or 10 nmol, about 0.3 0.8, 1.6 mg/kg), a dose-dependent reduction in ear swelling of up to 100% compared to controls was observed (FIG. 3c). […] Further, in a murine model of imiquimod-induced psoriasis (FIG. 4a), a single injection of RP23 reduced local erythema, skin thickness and scaling (FIG. 4b,c).

CSCC[C@H](NC(=O)COCCOCCNC(=O)[C@H](CCCCN)NC(=O)[C@H](CCCCN)NC(=O)[C@H](CCCCN)NC(=O)[C@@H](N)CCCCN)C(=O)N[C@H](C(=O)N1CCC[C@H]1C(=O)NCC(=O)N[C@H](C(=O)N[C@@H](CCC(N)=O)C(=O)N[C@@H](CO)C(=O)N1CCC[C@H]1C(=O)N[C@@H](Cc1ccccc1)C(=O)N[C@@H](Cc1ccccc1)C(=O)N[C@@H](CC(C)C)C(=O)N[C@@H](CC(C)C)C(=O)N[C@@H](CC(C)C)C(=O)N[C@@H](CC(C)C)C(=O)N[C@@H](CC(C)C)C(=O)N[C@H](C(=O)N[C@H](C(=O)N[C@@H](CC(C)C)C(=O)N[C@H](C(=O)N[C@H](C(=O)N[C@H](C(=O)O)C(C)C)C(C)C)[C@@H](C)O)C(C)C)[C@@H](C)O)[C@@H](C)O)[C@@H](C)O [RP23] (H-KKKK[AEEA]MTPGTQSPFFLLLLLTVLTVV-OH)
disease at a distal site (ear thickness) (C57BL/6 mice; injection at lower back, ear measured): did not suppress disease at a distal site | local erythema (C57BL/6 mice; single injection): reduced | scaling (C57BL/6 mice; single injection): reduced | skin thickness (C57BL/6 mice; single injection): reduced | systemic immune suppression / locality of effect (C57BL/6 mice; spleen weight at day 5, distal ear thickness (FIG. 4d)): isolated to the area in which RP23 was delivered | spontaneous activation of dermal dendritic cells (dermal dendritic cells): reduced spontaneous activation of dermal dendritic cells | skin tumour growth (UV13-1 tumour cells): modest increase in tumour growth | survival of tumour-bearing mice (UV13-1 tumour cells): succumbed to their tumour earlier
